Measurements: patent US7459450B2, “Neuropeptide receptor modulators” (Schering Corporation, priority 2004, dated 2008)
pKi: −log10 of the molar value.

Biological target: T1, Human NPY Y1 receptors (Homo sapiens, UniProt P25929)
T1 construct: expressed in transfected cells; host or cells: CHO cells (membrane protein)
T1 sequence (P25929 1-384): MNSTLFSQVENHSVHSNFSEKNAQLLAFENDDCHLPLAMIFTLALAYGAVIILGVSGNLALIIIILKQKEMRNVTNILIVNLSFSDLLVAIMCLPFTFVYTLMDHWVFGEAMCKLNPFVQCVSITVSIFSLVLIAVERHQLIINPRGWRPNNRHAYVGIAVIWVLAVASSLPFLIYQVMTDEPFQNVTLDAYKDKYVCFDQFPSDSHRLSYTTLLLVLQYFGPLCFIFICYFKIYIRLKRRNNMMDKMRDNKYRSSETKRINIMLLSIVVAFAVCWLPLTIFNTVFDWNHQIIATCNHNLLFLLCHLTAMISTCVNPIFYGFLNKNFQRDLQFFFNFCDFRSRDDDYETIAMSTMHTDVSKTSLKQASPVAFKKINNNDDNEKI
Assay: NPY Receptor Binding Assay
Conditions: Procedure A compounds, rated A/B/C
Experimental: NPY Receptor Binding Assay
Human NPY Y1 receptors were expressed in CHO cells. Binding assays were performed in 50 mM HEPES, pH 7.2, 2.5 mM CaCl2, 1 mM MgCl2 and 0.1% BSA containing 5-10 μg of membrane protein and 0.1 nM […] in a total volume of 200 μl. Non-specific binding was determined in the presence of 1 μM NPY. The reaction mixtures were incubated for 90 minutes at room temperature then filtered through Millipore MAFC glass fiber filter plates which had been pre-soaked in 0.5% polyethleneimine. The filters were washed with phosphate-buffered saline, and radioactivity was measured in a Packard TopCount scintillation counter.

SMILES	pKi
c1ccc2sc(NCCc3ccc(N(C4=NCCS4)C4=NCCS4)cc3)nc2c1 [Example 14]	< 5.00
CS(=O)(=O)c1ccc2nc(NCCc3ccc(NC4=NCCS4)cc3)sc2c1 [Example 15]	5.00 to 6.00
COc1ccc2nc(NCCc3ccc(NC4=NCCS4)cc3)sc2c1 [Example 16]	5.00 to 6.00
Cc1ccc2nc(NCCc3ccc(NC4=NCCS4)cc3)sc2c1 [Example 17]	5.00 to 6.00
O=[N+]([O-])c1ccc2nc(NCCc3ccc(NC4=NCCS4)cc3)sc2c1 [Example 18]	5.00 to 6.00
Clc1ccc2nc(NCCc3ccc(NC4=NCCS4)cc3)sc2c1 [Example 19]	5.00 to 6.00
Clc1cc2nc(NCCc3ccc(NC4=NCCS4)cc3)sc2cc1Cl [Example 20]	5.00 to 6.00
Fc1ccc2nc(NCCc3ccc(NC4=NCCS4)cc3)sc2c1 [Example 21]	5.00 to 6.00
COc1cccc2sc(NCCc3ccc(NC4=NCCS4)cc3)nc12 [Example 22]	5.00 to 6.00
Cc1cccc2sc(NCCc3ccc(NC4=NCCS4)cc3)nc12 [Example 23]	5.00 to 6.00
c1ccc(NC2=NCCS2)c(CCNc2nc3ccccc3s2)c1 [Example 24]	< 5.00
c1cc(CCNc2nc3ccccc3s2)cc(NC2=NCCS2)c1 [Example 25]	< 5.00

Same assay, conditions: Procedure B compounds, rated A/B/C

SMILES	pKi
CCOC(=O)N1CCN=C1Nc1ccc(CCNc2nc3ccccc3s2)cc1 [Example 26]	< 5.00
CCOC(=O)N1CC(c2ccccc2)N=C1Nc1ccc(CCNc2nc3ccccc3s2)cc1 (stereo not shown) [Example 27]	< 5.00
CCOC(=O)N1C(Nc2ccc(CCNc3nc4ccccc4s3)cc2)=NC(C)C1c1ccccc1 (stereo not shown) [Example 28]	< 5.00
CCOC(=O)N1CC2(CCCC2)N=C1Nc1ccc(CCNc2nc3ccccc3s2)cc1 [Example 29]	< 5.00
O=C(c1ccccc1)N1CC(c2ccccc2)N=C1Nc1ccc(CCNc2nc3ccccc3s2)cc1 (stereo not shown) [Example 30]	< 5.00
CC1N=C(Nc2ccc(CCNc3nc4ccccc4s3)cc2)N(C(=O)c2ccccc2)C1c1ccccc1 (stereo not shown) [Example 31]	< 5.00
O=C(c1ccccc1)N1CC2(CCCC2)N=C1Nc1ccc(CCNc2nc3ccccc3s2)cc1 [Example 32]	< 5.00
CCC1CN(C(=O)c2ccccc2)C(Nc2ccc(CCNc3nc4ccccc4s3)cc2)=N1 (stereo not shown) [Example 33]	< 5.00

The remaining lines, values ahead:

pKi	SMILES
< 5.00	CCOC(=O)N1CC2CCCN2/C1=N\c1ccc(CCNc2nc3ccccc3s2)cc1 (stereo not shown) [Example 34]
< 5.00	O=C(c1ccccc1)N1CC2CCCN2/C1=N\c1ccc(CCNc2nc3ccccc3s2)cc1 (stereo not shown) [Example 35]

Same assay, conditions: Procedure C compounds, rated A/B/C

SMILES	pKi
CCOC(=O)N1C(=O)CN=C1Nc1ccc(CCNc2nc3ccccc3s2)cc1 [Example 36]	< 5.00
CCOC(=O)N1C(=O)[C@H](C)N=C1Nc1ccc(CCNc2nc3ccccc3s2)cc1 [Example 37]	< 5.00
CCOC(=O)N1C(=O)[C@H](CC(=O)O)N=C1Nc1ccc(CCNc2nc3ccccc3s2)cc1 [Example 38]	< 5.00
CCOC(=O)N1C(=O)[C@H](CC2CCCCC2)N=C1Nc1ccc(CCNc2nc3ccccc3s2)cc1 [Example 39]	< 5.00
CCOC(=O)N1C(=O)[C@H](CCC(=O)O)N=C1Nc1ccc(CCNc2nc3ccccc3s2)cc1 [Example 40]	< 5.00
CCOC(=O)N1C(=O)[C@H]([C@@H](C)CC)N=C1Nc1ccc(CCNc2nc3ccccc3s2)cc1 [Example 41]	< 5.00
O=C(O)C[C@@H]1N=C(Nc2ccc(CCNc3nc4ccccc4s3)cc2)N(C(=O)c2ccccc2)C1=O [Example 49]	< 5.00
O=C(c1ccccc1)N1C(=O)[C@H](CC2CCCCC2)N=C1Nc1ccc(CCNc2nc3ccccc3s2)cc1 [Example 50]	< 5.00
O=C(O)CC[C@@H]1N=C(Nc2ccc(CCNc3nc4ccccc4s3)cc2)N(C(=O)c2ccccc2)C1=O [Example 51]	< 5.00
CC[C@H](C)[C@@H]1N=C(Nc2ccc(CCNc3nc4ccccc4s3)cc2)N(C(=O)c2ccccc2)C1=O [Example 52]	< 5.00
CC(C)C[C@@H]1N=C(Nc2ccc(CCNc3nc4ccccc4s3)cc2)N(C(=O)c2ccccc2)C1=O [Example 53]	< 5.00
CSCC[C@@H]1N=C(Nc2ccc(CCNc3nc4ccccc4s3)cc2)N(C(=O)c2ccccc2)C1=O [Example 54]	< 5.00

Same assay, conditions: Procedure E compounds, rated A/B/C

SMILES	pKi
O=[N+]([O-])c1ccc2nc(NCCc3ccc(N=C4NCCCS4)cc3)sc2c1 [Example 62]	< 5.00
CS(=O)(=O)c1ccc2nc(NCCc3ccc(/N=C4/NC(c5ccccc5)CCS4)cc3)sc2c1 (stereo not shown) [Example 64]	5.00 to 6.00
CS(=O)(=O)c1ccc2nc(NCCc3ccc(NC4=NCCCS4)cc3)sc2c1 [Example 65]	5.00 to 6.00
Clc1cc2nc(NCCc3ccc(/N=C4/NC(c5ccccc5)CCS4)cc3)sc2cc1Cl (stereo not shown) [Example 66]	< 5.00
O=[N+]([O-])c1ccc2nc(NCCc3ccc(/N=C4/NC(c5ccccc5)CCS4)cc3)sc2c1 (stereo not shown) [Example 67]	< 5.00
c1ccc(/N=C2\NCCCS2)c(CCNc2nc3ccccc3s2)c1 [Example 68]	< 5.00
c1cc(CCNc2nc3ccccc3s2)cc(/N=C2\NCCCS2)c1 [Example 69]	< 5.00
c1ccc(C2CCS/C(=N/c3ccccc3CCNc3nc4ccccc4s3)N2)cc1 (stereo not shown) [Example 70]	< 5.00
c1ccc(C2CCS/C(=N/c3cccc(CCNc4nc5ccccc5s4)c3)N2)cc1 (stereo not shown) [Example 71]	< 5.00
Clc1cc2nc(NCCc3ccc(N=C4NCCCS4)cc3)sc2cc1Cl [Example 72]	> 6.00
c1ccc(CN2CCS/C2=N\c2ccc(CCNc3nc4ccccc4s3)cc2)cc1 [Example 74]	< 5.00
O=[N+]([O-])c1ccc2nc(NCCc3ccc(/N=C4/NC5(CCCC5)CS4)cc3)sc2c1 [Example 75]	5.00 to 6.00
CC1(C)CS/C(=N\c2ccc(CCNc3nc4ccc([N+](=O)[O-])cc4s3)cc2)N1 [Example 76]	< 5.00
COc1ccc2nc(NCCc3ccc(/N=C4\SC5Cc6ccccc6[C@@H]5N4C)cc3)sc2c1 (stereo partly shown) [Example 77]	< 5.00
COc1ccc2nc(NCCc3ccc(/N=C4\SC5CCC[C@H]5N4C)cc3)sc2c1 (stereo partly shown) [Example 78]	< 5.00
COc1ccc2nc(NCCc3ccc(/N=C4\SC5Cc6ccccc6[C@@H]5N4C4CC4)cc3)sc2c1 (stereo partly shown) [Example 79]	< 5.00
COc1ccc2nc(NCCc3ccc(/N=C4\SCCN4C)cc3)sc2c1 [Example 80]	< 5.00
COc1ccc2nc(NCCc3ccc(/N=C4/N[C@@H](Cc5ccccc5)CS4)cc3)sc2c1 [Example 81]	5.00 to 6.00
COc1ccc2nc(NCCc3ccc(/N=C4/N[C@H](CC(C)C)CS4)cc3)sc2c1 [Example 82]	> 6.00
COc1ccc2nc(NCCc3ccc(/N=C4\SC[C@@H]5CCCN45)cc3)sc2c1 [Example 83]	< 5.00
CCC1CS/C(=N\c2ccc(CCNc3nc4ccc(OC)cc4s3)cc2)N1 (stereo not shown) [Example 84]	> 6.00
COc1ccc2nc(NCCc3ccc(/N=C4/NCC(c5ccccc5)S4)cc3)sc2c1 (stereo not shown) [Example 85]	< 5.00
Cc1ccc2nc(NCCc3ccc(/N=C4\SCCN4C)cc3)sc2c1 [Example 86]	< 5.00
Cc1ccc2nc(NCCc3ccc(/N=C4/N[C@@H](Cc5ccccc5)CS4)cc3)sc2c1 [Example 87]	5.00 to 6.00
Cc1ccc2nc(NCCc3ccc(/N=C4/N[C@H](CC(C)C)CS4)cc3)sc2c1 [Example 88]	> 6.00
Cc1ccc2nc(NCCc3ccc(/N=C4\SC[C@@H]5CCCN45)cc3)sc2c1 [Example 89]	< 5.00
Cc1ccc2nc(NCCc3ccc(/N=C4/NCC(c5ccccc5)S4)cc3)sc2c1 (stereo not shown) [Example 90]	< 5.00
CCCC1CS/C(=N\c2ccc(CCNc3nc4ccc(C)cc4s3)cc2)N1 (stereo not shown) [Example 91]	> 6.00
CCCCC1CS/C(=N\c2ccc(CCNc3nc4ccc(C)cc4s3)cc2)N1 (stereo not shown) [Example 92]	5.00 to 6.00
Cc1ccc2nc(NCCc3ccc(/N=C4/N[C@@H](C(C)C)CS4)cc3)sc2c1 [Example 93]	5.00 to 6.00

Same assay, conditions: Table 1, rated A/B/C

SMILES	pKi
Clc1ccc(C2CCSC(Nc3ccc(CCNc4nc5ccccc5s4)cc3)=N2)cc1 (stereo not shown) [Example 2]	> 6.00
COc1ccc(C2CCSC(Nc3ccc(CCNc4nc5ccccc5s4)cc3)=N2)cc1 (stereo not shown) [Example 3]	> 6.00
Clc1cccc(C2CCSC(Nc3ccc(CCNc4nc5ccccc5s4)cc3)=N2)c1 (stereo not shown) [Example 4]	> 6.00
Brc1ccc(C2CCSC(Nc3ccc(CCNc4nc5ccccc5s4)cc3)=N2)cc1 (stereo not shown) [Example 5]	> 6.00
c1ccc(C2CCCC(Nc3ccc(CCNc4nc5ccccc5s4)cc3)=N2)cc1 (stereo not shown) [Example 6]	> 6.00
c1ccc([C@@H]2CSC(Nc3ccc(CCNc4nc5ccccc5s4)cc3)=N2)cc1 [Example 7]	> 6.00
c1ccc([C@H]2CSC(Nc3ccc(CCNc4nc5ccccc5s4)cc3)=N2)cc1 [Example 8]	5.00 to 6.00
c1ccc2sc(NCCc3ccc(NC4=NC(C5CCCCC5)CCS4)cc3)nc2c1 (stereo not shown) [Example 9]	> 6.00
CC(C)C1CCSC(Nc2ccc(CCNc3nc4ccccc4s3)cc2)=N1 (stereo not shown) [Example 10]	> 6.00
CC1CCSC(Nc2ccc(CCNc3nc4ccccc4s3)cc2)=N1 (stereo not shown) [Example 11]	> 6.00
CC(C)CC1CCSC(Nc2ccc(CCNc3nc4ccccc4s3)cc2)=N1 (stereo not shown) [Example 12]	> 6.00
c1ccc(CCC2CCSC(Nc3ccc(CCNc4nc5ccccc5s4)cc3)=N2)cc1 (stereo not shown) [Example 13]	> 6.00
